From patent US7902252B2, “Inhibitors of D-amino acid oxidase” (Sepracor, Inc., priority 2007, dated 2011)

Legend:
Human DAAO = Human DAAO (Homo sapiens, UniProt P14920); experiment: D-Amino Acid Oxidase enzyme assay (D-serine, horseradish peroxidase/Amplex Red coupled fluorescence); type: biochemical; details: D-serine 5 mM, pH 7.4
Procedure, shortened: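 D-serine substrate at 5 mM (Km), 50 mM sodium phosphate pH 7.4; H2O2 output coupled via 4 U/mL horseradish peroxidase and 50 μM Amplex Red to resorufin fluorescence. Reaction started with enzyme; H2O2 control checked coupling interference; IC50 from inhibition curves.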

[1] = system: D-serine levels in the cerebellum; experiment: In vivo elevation of D-serine levels in the cerebellum; parameters: species or system Mice (C57BL/6); details: mice, intraperitoneal;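 note: Cutoffs are cerebellum D-serine in nmol/g wet tissue weight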
Method: […] Animals are sacrificed at either 2 or 6 h post compound administration with an N=3 per time point. At sacrifice, trunk blood is collected into tubes containing potassium EDTA, which are then centrifuged to permit isolation of plasma. The cerebellum is dissected from each animal. Plasma and cerebellum samples are stored at −80° C. until samples are analyzed (LC/MS/MS).

Human DAAO, sequence (P14920 whole entry): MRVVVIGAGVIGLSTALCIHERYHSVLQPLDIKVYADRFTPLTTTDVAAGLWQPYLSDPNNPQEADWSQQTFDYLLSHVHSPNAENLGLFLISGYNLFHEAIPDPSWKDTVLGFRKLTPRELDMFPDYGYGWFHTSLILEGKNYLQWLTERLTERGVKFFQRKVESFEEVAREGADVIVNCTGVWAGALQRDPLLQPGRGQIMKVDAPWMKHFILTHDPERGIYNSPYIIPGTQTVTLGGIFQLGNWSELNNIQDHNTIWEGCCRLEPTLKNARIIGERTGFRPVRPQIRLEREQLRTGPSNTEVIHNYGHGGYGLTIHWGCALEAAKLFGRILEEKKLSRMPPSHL

O=C(O)c1cc2c([nH]1)C[C@@H]1C[C@H]21 (racemic) [Compound 138, ±(1aS,5aS)-1a,4,5,5a-tetrahydro-1H-4-aza-cyclopropa[α]pentalene-3-carboxylic acid]
IC50 (Human DAAO): ≤ 0.1 µM
Cerebellum D-serine at 2 hours ([1]; dose 60 mg/kg): (++) (>5 = (++))
Cerebellum D-serine at 6 hours ([1]; dose 60 mg/kg): (++) (>5 = (++))

CCCC1CCc2[nH]c(C(=O)O)cc21 (single isomer, unassigned) [Compound 8, 4-propyl-1,4,5,6-tetrahydrocyclopenta[b]pyrrole-2-carboxylic acid]
IC50 (Human DAAO): ≤ 0.1 µM
Cerebellum D-serine at 2 hours ([1]; dose 30 mg/kg): (++) (>5 = (++))
Cerebellum D-serine at 6 hours ([1]; dose 30 mg/kg): (+) (2.5-4.9 = (+))

O=C(O)c1cc2c([nH]1)CCC2Cc1ccc(F)c(F)c1 (single isomer, unassigned) [Compound 44, 4-(3,4-difluorobenzyl)-1,4,5,6-tetrahydrocyclopenta[b]pyrrole-2-carboxylic acid]
IC50 (Human DAAO): ≤ 0.1 µM
Cerebellum D-serine at 2 hours ([1]; dose 30 mg/kg): (+) (2.5-4.9 = (+))
Cerebellum D-serine at 6 hours ([1]; dose 30 mg/kg): (+) (2.5-4.9 = (+))

O=C(O)c1cc2c([nH]1)CCC2Cc1ccc(F)cc1F (single isomer, unassigned) [Compound 47, 4-(2,4-difluorobenzyl)-1,4,5,6-tetrahydrocyclopenta[b]pyrrole-2-carboxylic acid]
IC50 (Human DAAO): ≤ 0.1 µM
Cerebellum D-serine at 2 hours ([1]; dose 30 mg/kg): (++) (>5 = (++))
Cerebellum D-serine at 6 hours ([1]; dose 30 mg/kg): (+) (2.5-4.9 = (+))

Cc1cc(F)ccc1CC1CCc2[nH]c(C(=O)O)cc21 (single isomer, unassigned) [Compound 53, 4-(4-fluoro-2-methylbenzyl)-1,4,5,6-tetrahydrocyclopenta[b]pyrrole-2-carboxylic acid]
IC50 (Human DAAO): ≤ 0.1 µM
Cerebellum D-serine at 2 hours ([1]; dose 10 mg/kg): (+) (2.5-4.9 = (+))
Cerebellum D-serine at 6 hours ([1]; dose 10 mg/kg): (−) (<2.5 = (−))

O=C(O)c1cc2c([nH]1)CCC2Cc1ccc(Cl)c(Cl)c1 (single isomer, unassigned) [Compound 59, 4-(3,4-dichlorobenzyl)-1,4,5,6-tetrahydrocyclopenta[b]pyrrole-2-carboxylic acid]
IC50 (Human DAAO): ≤ 0.1 µM
Cerebellum D-serine at 2 hours ([1]; dose 10 mg/kg): (+) (2.5-4.9 = (+))
Cerebellum D-serine at 6 hours ([1]; dose 10 mg/kg): (+) (2.5-4.9 = (+))

O=C(O)c1cc2c([nH]1)CCC2Cc1ccc(Br)cc1 (single isomer, unassigned) [Compound 62, 4-(4-bromobenzyl)-1,4,5,6-tetrahydrocyclopenta[b]pyrrole-2-carboxylic acid]
IC50 (Human DAAO): ≤ 0.1 µM
Cerebellum D-serine at 2 hours ([1]; dose 30 mg/kg): (+) (2.5-4.9 = (+))
Cerebellum D-serine at 6 hours ([1]; dose 30 mg/kg): (++) (>5 = (++))

O=C(O)c1cc2c([nH]1)CCC2Cc1cccc(Br)c1 (single isomer, unassigned) [Compound 64, 4-(3-bromobenzyl)-1,4,5,6-tetrahydrocyclopenta[b]pyrrole-2-carboxylic acid]
IC50 (Human DAAO): ≤ 0.1 µM
Cerebellum D-serine at 2 hours ([1]; dose 60 mg/kg): (−) (<2.5 = (−))

O=C(O)c1cc2c([nH]1)CCC2Cc1cccc(Br)c1 (single isomer, unassigned) [Compound 65, 4-(3-bromobenzyl)-1,4,5,6-tetrahydrocyclopenta[b]pyrrole-2-carboxylic acid]
IC50 (Human DAAO): ≤ 100 µM
Cerebellum D-serine at 2 hours ([1]; dose 30 mg/kg): (++) (>5 = (++))
Cerebellum D-serine at 6 hours ([1]; dose 30 mg/kg): (+) (2.5-4.9 = (+))

COc1cccc(CC2CCc3[nH]c(C(=O)O)cc32)c1 (single isomer, unassigned) [Compound 68, 4-(3-methoxybenzyl)-1,4,5,6-tetrahydrocyclopenta[b]pyrrole-2-carboxylic acid]
IC50 (Human DAAO): ≤ 0.1 µM
Cerebellum D-serine at 2 hours ([1]; dose 30 mg/kg): (+) (2.5-4.9 = (+))
Cerebellum D-serine at 6 hours ([1]; dose 30 mg/kg): (+) (2.5-4.9 = (+))

O=C(O)c1cc2c([nH]1)CCC2Cc1ccc2ccccc2c1 (single isomer, unassigned) [Compound 80, 4-(naphthalen-2-ylmethyl)-1,4,5,6-tetrahydrocyclopenta[b]pyrrole-2-carboxylic acid]
IC50 (Human DAAO): ≤ 0.1 µM
Cerebellum D-serine at 2 hours ([1]; dose 30 mg/kg): (+) (2.5-4.9 = (+))
Cerebellum D-serine at 6 hours ([1]; dose 30 mg/kg): (+) (2.5-4.9 = (+))

O=C(O)c1cc2c([nH]1)CCC2Cc1cccc(-c2ccco2)c1 (single isomer, unassigned) [Compound 89, 4-(3-(furan-2-yl)benzyl)-1,4,5,6-tetrahydrocyclopenta[b]pyrrole-2-carboxylic acid]
IC50 (Human DAAO): ≤ 0.1 µM
Cerebellum D-serine at 2 hours ([1]; dose 30 mg/kg): (−) (<2.5 = (−))

O=C(O)c1cc2c([nH]1)CCC2Cc1cccc(-c2ccc[nH]2)c1 (single isomer, unassigned) [Compound 93, 4-(3-(1H-pyrrol-2-yl)benzyl)-1,4,5,6-tetrahydrocyclopenta[b]pyrrole-2-carboxylic acid]
IC50 (Human DAAO): ≤ 0.1 µM
Cerebellum D-serine at 2 hours ([1]; dose 30 mg/kg): (+) (2.5-4.9 = (+))
Cerebellum D-serine at 6 hours ([1]; dose 30 mg/kg): (+) (2.5-4.9 = (+))

O=C(O)c1cc2c([nH]1)CCC2c1cccc(F)c1 (single isomer, unassigned) [Compound 96, 4-(3-fluorophenyl)-1,4,5,6-tetrahydrocyclopenta[b]pyrrole-2-carboxylic acid]
IC50 (Human DAAO): ≤ 0.1 µM
Cerebellum D-serine at 2 hours ([1]; dose 30 mg/kg): (+) (2.5-4.9 = (+))
Cerebellum D-serine at 6 hours ([1]; dose 30 mg/kg): (+) (2.5-4.9 = (+))

O=C(O)c1cc2c([nH]1)CCC2c1cc(F)cc(F)c1 (single isomer, unassigned) [Compound 100, 4-(3,5-difluorophenyl)-1,4,5,6-tetrahydrocyclopenta[b]pyrrole-2-carboxylic acid]
IC50 (Human DAAO): ≤ 0.1 µM
Cerebellum D-serine at 2 hours ([1]; dose 30 mg/kg): (+) (2.5-4.9 = (+))
Cerebellum D-serine at 6 hours ([1]; dose 30 mg/kg): (+) (2.5-4.9 = (+))

O=C(O)c1cc2c([nH]1)C(Cc1cccc(Cl)c1)CC2 (single isomer, unassigned) [Compound 123, 6-(3-chlorobenzyl)-1,4,5,6-tetrahydrocyclopenta[b]pyrrole-2-carboxylic acid]
IC50 (Human DAAO): ≤ 0.1 µM
Cerebellum D-serine at 2 hours ([1]; dose 30 mg/kg): (+) (2.5-4.9 = (+))
Cerebellum D-serine at 6 hours ([1]; dose 30 mg/kg): (+) (2.5-4.9 = (+))

COc1cccc(CC2CCc3cc(C(=O)O)[nH]c32)c1 (single isomer, unassigned) [Compound 131, 6-(3-methoxybenzyl)-1,4,5,6-tetrahydrocyclopenta[b]pyrrole-2-carboxylic acid]
IC50 (Human DAAO): ≤ 0.1 µM
Cerebellum D-serine at 2 hours ([1]; dose 30 mg/kg): (+) (2.5-4.9 = (+))
Cerebellum D-serine at 6 hours ([1]; dose 30 mg/kg): (+) (2.5-4.9 = (+))

O=C(O)c1cc2c([nH]1)CC1CC21 (single isomer, unassigned) [Compound 140, 1a,4,5,5a-tetrahydro-1H-4-aza-cyclopropa[α]pentalene-3-carboxylic acid]
IC50 (Human DAAO): ≤ 0.1 µM
Cerebellum D-serine at 2 hours ([1]; dose 30 mg/kg): (++) (>5 = (++))
Cerebellum D-serine at 6 hours ([1]; dose 30 mg/kg): (++) (>5 = (++))

O=C(O)c1cc2c([nH]1)CCC2 [Compound 1, 1,4,5,6-tetrahydro-cyclopenta[b]pyrrole-2-carboxylic acid]
IC50 (Human DAAO): ≤ 0.1 µM
Cerebellum D-serine at 2 hours ([1]; dose 30 mg/kg): (++) (>5 = (++))
Cerebellum D-serine at 6 hours ([1]; dose 30 mg/kg): (++) (>5 = (++))

O=C(O)c1cc2c([nH]1)CCC2Cc1cccc(F)c1 (stereo not shown) [Compound 54, 4-(3-fluorobenzyl)-1,4,5,6-tetrahydrocyclopenta[b]pyrrole-2-carboxylic acid]
IC50 (Human DAAO): ≤ 0.1 µM
Cerebellum D-serine at 2 hours ([1]; dose 30 mg/kg): (+) (2.5-4.9 = (+))
Cerebellum D-serine at 6 hours ([1]; dose 30 mg/kg): (+) (2.5-4.9 = (+))

Cc1cccc(CC2CCc3[nH]c(C(=O)O)cc32)c1 (stereo not shown) [Compound 70, 4-(3-methylbenzyl)-1,4,5,6-tetrahydrocyclopenta[b]pyrrole-2-carboxylic acid]
IC50 (Human DAAO): ≤ 0.1 µM
Cerebellum D-serine at 2 hours ([1]; dose 60 mg/kg): (+) (2.5-4.9 = (+))
Cerebellum D-serine at 6 hours ([1]; dose 60 mg/kg): (+) (2.5-4.9 = (+))
